# Data from ChEMBL document CHEMBL1130520, “Solid phase synthesis of C-terminal carbohydrate modified enkephalins” (Bioorg Med Chem Lett, 1997).
# Starred links: 1 amine or outer side, 2 acyl side, 3 side chain; linkers in the order of their positions; H or OH if unused. Non-standard residues stand in square brackets, D forms with d. Residues, ends and D or L forms follow the SMILES beside them. *: point of attachment. X1 = NC(=O)[C@@H]1O[C@@H](N*)[C@@H](O)[C@@H](O)[C@@H]1O; X3 = O=C(O)[C@@H]1O[C@@H](N*)[C@@H](O)[C@@H](O)[C@@H]1O; X2 = O=C(O)C1OC(NC(=O)C2OC(N*)C(O)C(O)C2O)C(O)C(O)C1O; hMet = CSCCC[C@H](N)C(=O)O; CO = O=C([*:1])[*:2]
# What was measured:
# Format in all cases: functional
# [1] = species on record: Cavia porcellus; assay: Compound was tested in vitro for inhibiting electrically stimulated muscle contractions in guinea pig ileum (GPI)
# [2] = species on record: Mus musculus; assay: Compound was tested in vitro for inhibiting electrically stimulated muscle contractions in mouse vas deferens (MVD); conditions: Muscle tissue
# [3] = species on record: Mus musculus; assay: Compound was tested for relative potency with respect to the compound Enkephalinamide in MVD assay
# [4] = species on record: Cavia porcellus; assay: Compound was tested for relative potency with respect to the compound Enkephalinamide in GPI assay
Structure (SMILES),IC50 [1] [nM],IC50 [2] [nM],Relative potency [3],Relative potency [4]
"CC(C)C[C@H](NC(=O)[C@H](Cc1ccccc1)NC(=O)CNC(=O)CNC(=O)[C@@H](N)Cc1ccc(O)cc1)C(N)=O (single isomer, unassigned) [[LEU5]ENKEPHALIN]",540,280,1,1
CC(C)C[C@H](NC(=O)N[C@@H]1O[C@@H](C(N)=O)[C@@H](O)[C@H](O)[C@@H]1O)C(=O)N[C@@H](Cc1ccccc1)C(=O)NCC(=O)NCC(=O)N[C@@H](Cc1ccc(O)cc1)C(=O)O ({X1-CO}-LFGGY-OH),3860,110,0.51,0.14
CC(C)C[C@H](NC(=O)NC1OC(C(=O)NC2OC(C(=O)O)C(O)C(O)C2O)C(O)C(O)C1O)C(=O)N[C@@H](Cc1ccccc1)C(=O)NCC(=O)NCC(=O)N[C@@H](Cc1ccc(O)cc1)C(=O)O (stereo not given in full) ({X2-CO}-LFGGY-OH),1040,550,2.56,0.52
CC(C)C[C@H](NC(=O)N[C@@H]1O[C@@H](C(=O)O)[C@@H](O)[C@H](O)[C@@H]1O)C(=O)N[C@@H](Cc1ccccc1)C(=O)NCC(=O)NCC(=O)N[C@@H](Cc1ccc(O)cc1)C(=O)O ({X3-CO}-LFGGY-OH),200,8,35.39,2.74
CSCCC[C@H](NC(=O)N[C@@H]1O[C@@H](C(=O)O)[C@@H](O)[C@H](O)[C@@H]1O)C(=O)N[C@@H](Cc1ccccc1)C(=O)NCC(=O)NCC(=O)N[C@@H](Cc1ccc(O)cc1)C(=O)O ({X3-CO}-[hMet]FGGY-OH),110,70,3.8,4.54
